Where a SMILES comes first, the peptide text is derived from it. The star is where a group is joined. Cbz = O=C(OCc1ccccc1)*
Key:
BxPC3 shSki cells = test: MTT cell viability assay, BxPC3 shSki; type: cell-based, human; conditions: for difference in IC50 values shSki versus shGFP: BxPC3 shSki over shGFP; for IC50: Homo sapiens, BXPC-3, MTT, 72 hr, Ski knockdown
Procedure: (§1) FIG. 24. Effect of the prodrug on cell viability of BxPC3 cells (shGFP and shSki). Cells were treated with the indicated dose of drugs (BKAc-5FCR or 5FCR) for 72 hr followed by MTT assay. Data represent mean values of triplicate measurements±standard deviation. IC50 values were derived from nonlinear curve fit of the dose response data using an outlier's exclusion, variable slope model (GraphPad Prism software). All values are means of at least two independent experiments.
(§2) The in vitro efficacy of the compounds in a series of BxPC3 and CFPac-1 derivatives with reduced Class I HDAC activity following Ski knockdown (shSki), HDAC3 knockdown and control (shGFP) was assessed. The growth inhibitory/viability effects of the compounds (IC50 value, the concentration resulting in 50% growth inhibition) on the various cell lines were determined by dose response curve analysis (GraphPad Prism software) of MTT [3-(4,5dimethylthiazol-2-yl)-2,5-diphenyl-tetrazolium bromide] cell viability assay. If the prodrugs are activated in an HDAC-dependent manner, the cells with reduced HDAC activity would be predicted to be more resistant to the prodrug treatment than control cells, while the effect of free parental drugs on both cells would be expected to be similar.

[1] = test system: BxPC3 shGFP control cells; test: MTT cell viability assay, BxPC3 shGFP; type: cell-based; conditions: Homo sapiens, BXPC-3, 72 hr
Procedure: as §1, §2

BXPC-3 cells = test: MTS cell viability assay with or without TSA; type: cell-based, human; conditions: 20 μM, 72 hr, with TSA (50 μM as printed)
Procedure: FIG. 25. Selective cytotoxicity by BKAc-5FCR. Human pancreatic BXPC3 cells were treated with DMSO (vehicle), BKAc-5FCR (20 μM), or 5FCR (20 μM) for 72 hr with or without TSA (50 μM) followed by MTS cell viability assay. Representative phase contrast images of cells treated with DMSO (vehicle) or BKAc-5FCR (20 μM) for 72 hr with or without TSA (50 μM) are shown.

[2] = test system: HDAC and cathepsin L in BxPC3 and CFPac-1 cells; test: Live cell enzymatic assay with Boc-Lys(Ac)-AMC in pancreatic cancer cells; type: cell-based, human; conditions: for activation of substrate Boc-Lys(Ac)-AMC (AMC release): 6 hr, Z-FY-CHO 10 μM
Procedure: FIG. 5. A. HDAC assay using different substrates in BxPC3 cells (shGFP and shSki). Cells were incubated with Boc-Lys(Ac)-AMC or Ac-Arg-Gly-Lys(Ac)-AMC (25 μM) for 1 hr with DMSO (vehicle) or TSA (1 μM) as indicated, followed by cell lysis and trypsin treatment, and fluorescence measurements. Data represent mean values of triplicate measurements±standard deviation. RFU, relative fluorescent units. B. Similar experiment was done as in A but without cell lysis and trypsin treatment. Cells were incubated with the substrates for 2.5 hr.
FIG. 6. A. Release of AMC by combined HDAC and endogenous protease-dependent enzymatic reaction in BxPC3 and CFPac-1 cells (shGFP and shSki). Cells were incubated with substrate Boc-Lys(Ac)-AMC (25 μM) for 6 hr with DMSO (vehicle), TSA (1 μM), or Z-FY-CHO (10 μM) as indicated, followed by fluorescence measurements. Data represent mean values of triplicate measurements±standard deviation. RFU, relative fluorescent units. B. Time course of AMC release in BxPC3 cells (shGFP and shSki). Each cells were incubated with Boc-Lys(Ac)-AMC (25 μM) for 2.5, 6.0, and 23 hr with DMSO (vehicle) or TSA (1 μM) as indicated.
(§3) Tissue culture based standard HDAC assays were performed by commercially available fluorimetric HDAC assay kit (SensoLyte, AnaSpec) according to the manufacturer's instruction with modification of using 25 μM Boc-Lys(Ac)-AMC (Bachem) as substrate and measuring parameter (Ex/Em=355 nm/460 nm) for AMC. Basically, HDAC substrate 25 μM Boc-Lys(Ac)-AMC [either with DMSO or 1 μM TSA (Sigma)] was applied to the overnight culture seeded from 6×10^4 cells in 100 μl medium in 96-well tissue culture plates, followed by 2 to 3 h incubation at 37° C. with 5% CO2 atmosphere. Then the deacetylation reaction was terminated by addition of HDAC developer solution containing cell lysis buffer and trypsin reagents. After 15 m incubation at room temperature, the fluorescent signal of AMC was measured by SpectraMax M5 microplate reader (Molecular Devices) at Ex/Em=355 nm/460 nm. Live cell lysyl endopeptidase assay was performed by applying the substrate 25 μM Boc-Lys-AMC (Bachem) [either with DMSO or 100 μM Z-FY-CHO (EMD)] to the overnight culture seeded from 6×10^4 cells in 100 μl medium in 96-well tissue culture plates, followed by 20 h incubation at 37° C. with 5% CO2 atmosphere, then the fluorescent signal of AMC was measured. Live cell enzymatic assay using Boc-Lys(Ac)-AMC was performed by applying the substrate 25 μM Boc-Lys(Ac)-AMC (either with DMSO, 1 μM TSA or 100 μM Z-FY-CHO) to the overnight culture seeded from 6×10^4 cells in 100 μl medium in 96-well tissue culture plates, followed by 20 h incubation at 37° C. with 5% CO2 atmosphere, then the fluorescent signal of AMC was measured. Experiments were repeated at least three times.

cathepsin L (CTSL) = test: Live cell lysyl endopeptidase assay with Boc-Lys-AMC; type: cell-based; conditions: Z-FY-CHO 100 μM, live cells, all cases tested
Procedure: FIG. 2. Comparative live cell lysyl endopeptidase activity of the same cell lines as in FIG. 1 using substrate Boc-Lys-AMC either with vehicle control DMSO or Z-FY-CHO (100 μM). Data represent mean values of triplicate measurements±s.d. RFU, relative fluorescent units.
as §3, with “Then the deacetylation reaction was terminated by addition of HDAC developer solution containing cell lysis buffer and trypsin reagents.” left out, “Live cell enzymatic assay using Boc-Lys(Ac)-AMC was performed by applying the substrate 25 μM Boc-Lys(Ac)-AMC (either with DMSO, 1 μM TSA or 100 μM Z-FY-CHO) to the overnight culture seeded from 6×10^4 cells in 100 μl medium in 96-well tissue culture plates, followed by 20 h incubation at 37° C. with 5% CO2 atmosphere, then the fluorescent signal of AMC was measured. Experiments were repeated at least three times.” left out

[3] = test system: HCT116, HT29, CCD841-CoN and Caco-2 cells; test: Cell killing by parental Puro (MTS); type: cell-based, human
Procedure: FIG. 14. Inhibition of cell viability by parental Puro. The cell lines were treated with the indicated doses of Puro (0, 1.1, 2.1, 4.2, or 8.4 μM) for 3 d followed by MTS assay. Data represent mean values of triplicate mesurements±s.d.
Cell number was determined by cell counting using improved Neubauer hemacytometer. Cell viability was calculated as the number of viable cells divided by the total number of cells using Trypan Blue Stain (Invitrogen) to distinguish non-viable cells. Data were obtained from duplicated samples with quadruplicate measurements. MTS based cell viability assay was performed using CellTiter 96 Aqueous Cell Proliferation Assay (Promega) according to the manufacturer's instruction. Either 1 μl of DMSO alone or variable concentrations of BKAc-Puro or Puro in DMSO were added to the cell lines seeded at 5×10^4 cells per well in 96-well tissue culture plates in 100 μl of the growth medium, followed by 3-5 d incubation at 37° C. with 5% CO2 atmosphere. […] After additional 2-3 h incubation, the absorbance of the formazan at 490 nm was measured by the microplate reader. […] Determination of non-viable cells using PI staining was performed by adding 1 μg/ml of PI solution (Sigma) to the cell culture, prior to the examination under fluorescence microscopy (Axiovert 3, Carl Zeiss) through a×32 objective equipped with a digital imaging processor (Infinity 3, Lumenera).

[4] = test system: HCT116, HT29, CCD841-CoN and Caco-2 cells; test: Immunological detection of Puro-labeled proteins in cells; type: cell-based, human; conditions: immunoblot; Boc-KAc-Puro 16.9 μM 20 h; Puro 2.1 μM 16 h
Procedure: (§4) FIG. 27. Levels of Puro-incorporated proteins in the cells were monitored by immunoblotting. Indicated cell lines were treated either with vehicle control DMSO or Boc-KAc-Puro (16.9 μM) in the presence or absence of TSA (0.5 μM) for 20 h, followed by preparation of cell lysates. The lower panel (anti-α-Tubulin) serves as a loading control.
as §4, with “28.” for “27.”, “Puro (2.1” for “Boc-KAc-Puro (16.9”, “16” for “20”, “lysates. […]” for “lysates.”
Cultured cells or tissue samples were sonicated in RIPA lysis buffer (1% NP-40, 0.1% SDS, 50 mM Tris-HCl pH 7.4, 150 mM NaCl, 0.5% sodium deoxycholate, 1 mM EDTA) supplemented with PMSF and protease inhibitor cocktail (Roche) on ice followed by clarification. Protein lysates were separated on sodium dodecyl sulfate-polyacrylamide gels and transferred onto nitrocellulose membranes (Whatman). The primary antibodies used were anti-puromycin (3RH11, KeraFAST) and anti-α-tubulin (Sigma-Aldrich). Proteins of interest were detected with anti-mouse secondary antibody by chemiluminescence (ECL Kit, GE Healthcare Life Sciences).

Row | difference in IC50 values shSki versus shGFP (BxPC3 shSki cells) | IC50 (BxPC3 shSki cells) | IC50 [1] | SMILES | activation of substrate Boc-Lys(Ac)-AMC (AMC release) ([2]; TSA 1 μM) | further results
1 | two-fold | 5.2 µM | 2.6 µM | CC(=O)NCCCCC(NC(=O)OC(C)(C)C)C(=O)Nc1nc(=O)n([C@@H]2O[C@H](CO)[C@@H](O)[C@H]2O)cc1F (stereo partly drawn) [BKAc-5FCR, t-butyl (6-acetamido-1-((1-((2R,3R,4S,5R)-3,4-dihydroxy-5-(hydroxymethyl)tetrahydrofuran-2-yl)-5-fluoro-2-oxo-1,2-dihydropyrimidin-4-yl)amino)-1-oxohexan-2-yl)carbamate] | – | cytotoxic effect in the presence of HDAC inhibitor TSA (BXPC-3 cells): substantially compromised
2 | – | – | – | O=C[C@H](Cc1ccc(O)cc1)NC(=O)[C@H](Cc1ccccc1)NC(=O)OCc1ccccc1 [Z-FY-CHO] (Cbz-Phe-Tyr-aldehyde) | completely abrogated the activation of the substrate | release of AMC from Boc-Lys-AMC (cathepsin L (CTSL)): significantly blocked
3 | – | – | – | CC(/C=C/C(=O)NO)=C\[C@@H](C)C(=O)c1ccc(N(C)C)cc1 [TSA, Trichostatin A] | completely inhibited activation | AMC release, time course ([2]; BxPC3, 20 hr time course, TSA 1 μM): AMC release was inhibited
4 | no significant changes | 1.2 µM | 1.3 µM | Nc1nc(=O)n([C@@H]2O[C@H](CO)[C@@H](O)[C@H]2O)cc1F [5FCR, 5-fluorocytidine, reference compound] | – | –
5 | – | – | – | COc1ccc(C[C@H](N)C(=O)N[C@H]2[C@@H](O)[C@H](n3cnc4c(N(C)C)ncnc43)O[C@@H]2CO)cc1 [Puro, puromycin, reference compound] | – | cell killing [3]: kill all of these cells examined; intensity of Puro incorporation, malignant vs normal and non-malignant cells [4]: no difference
6 | – | – | – | CC(=O)NCCCC[C@H](NC(=O)OC(C)(C)C)C(=O)Nc1ccc2c(C)cc(=O)oc2c1 [Boc-Lys(Ac)-AMC] | – | activation of substrate in live cells relative to total HDAC activity ([2]; BxPC3, 25 μM, 2.5 hr, without cell lysis and trypsin): approximately 50%

Reference: patent US9872919B2, “Prodrugs for selective anticancer therapy” (THE RESEARCH FOUNDATION FOR THE STATE UNIVERSITY OF NEW YORK, priority 2012, dated 2018)
